Data reported in patent publication US20040219602A1, “Evaluating effects of exposure conditions on drug samples over time” (Symyx Technologies, Inc., priority 2003, published 2004).

Tests used:
Assay type in all cases: physicochemical
[1] = Fluorescence emission of solid drug samples exposed to 80° C. (thermal stability); conditions: oven at 80° C., 15 and 41 hours vs unexposed, Renishaw Raman Spectrometer
Experimental: In the following examples, drug candidate stability is evaluated using non-destructive tests to track any change in property over time while exposed to a condition. Fluorescence, Raman, powder X-ray diffraction, near-IR, mid-IR, UV-Vis absorbance, and colorimetry are used. A change in the peak intensity for these tests is measured for the samples before exposure and during exposure.
Two 20 ml vials containing approximately 10 mg each of Amoxicillin, two 20 ml vials containing approximately 10 mg each of Ampicillin trihydrate and two 20 ml vials containing approximately 10 mg each of Caphalexin hydrate were prepared and placed in an oven at 80° C. One vial of each compound was removed from the oven after 15 hours of exposure, and the other vial of each compound was removed from the oven after 41 hours. Approximately 2 mg samples from each of the vials were placed in discreet regions of a Universal ⋄ Substrate™. Approximately 2 mg of unexposed Amoxicillan, Ampicillin trihydrate and Cephalexil hydrate were also placed in discreet regions of the Universal ⋄ Substrate™. The Raman scattering response and the fluorescence emission response of the samples were measured using a Renishaw Raman Spectrometer.

[2] = Powder X-ray diffraction of exposed and unexposed drug sample (thermal stability, crystallinity); conditions: solid, oven 216 hours at 100 C vs unexposed
Experimental: Approximately 2 mg of Amoxicillin was placed on a Universal ⋄ Substrate™ and exposed in an oven for 216 hours at 100 C. After the sample was removed from the oven, approximately 2 mg of unexposed sample was also on the placed on the Universal ⋄ Substrate™. The X-ray powder diffraction (XRD) patterns for the exposed and unexposed samples were collected on a Bruker D-8 C2 X-ray diffractometer.

[3] = FT-Raman of solid drug samples exposed to 80° C. (thermal stability); conditions: heated for 216 hours at 80° C. vs unexposed
Source text: The change in FT-Raman signal is used to measure the rate of drug decomposition and the chemical stability of the drug candidate.

CC1(C)S[C@@H]2[C@H](NC(=O)[C@H](N)c3ccccc3)C(=O)N2[C@H]1C(=O)O [Ampicillin trihydrate]
amplitude of the fluorescence emission as a function of heating time [1]: increased significantly

CC1(C)S[C@@H]2[C@H](NC(=O)[C@H](N)c3ccc(O)cc3)C(=O)N2[C@H]1C(=O)O [Amoxicillin]
amplitude of the fluorescence emission as a function of heating time [1]: increased significantly | crystallinity (powder diffraction intensity) after exposure [2]: almost completely lost | change of FT-Raman spectrum after heating [3]: changes significantly

CC1=C(C(=O)O)N2C(=O)[C@@H](NC(=O)[C@H](N)c3ccccc3)[C@H]2SC1 [Cephalexin hydrate]
amplitude of the fluorescence emission as a function of heating time [1]: increased significantly
